Laboratory results: article doi:10.1101/2021.04.08.439011v1 (biorxiv, 2021)
Like-named read-outs stand apart in the source and are kept apart here.

What was measured:
FGFR1 = FGFR1 (Homo sapiens, UniProt P11362); details: 0.1 µM; binder
ABL1(M351T) = ABL1(M351T) (Homo sapiens, UniProt P00519, M351T); details: phosphorylated; 0.1 µM; binder
TAOK1 = TAOK1 (Homo sapiens, UniProt Q7L7X3); details: 0.1 µM; binder
CAMKK2 = CAMKK2 (Homo sapiens, UniProt Q96RR4); details: 0.1 µM; binder
TNK2 = TNK2 (Homo sapiens, UniProt Q07912); details: 0.1 µM; binder
BMPR1A = BMPR1A (Homo sapiens, UniProt P36894); details: 0.1 µM; binder
LZK = LZK (Homo sapiens, UniProt O43283); details: 0.1 µM; binder
TSSK3 = TSSK3 (Homo sapiens, UniProt Q96PN8); details: 0.1 µM; binder
EPHB1 = EPHB1 (Homo sapiens, UniProt P54762); details: 0.1 µM; binder
MYLK2 = MYLK2 (Homo sapiens, UniProt Q9H1R3); details: 0.1 µM; binder
PIK3CA(C420R) = PIK3CA(C420R) (Homo sapiens, UniProt P42336, C420R); details: 0.1 µM; binder
BUB1 = BUB1 (Homo sapiens, UniProt O43683); details: 0.1 µM; binder
CDK2 = CDK2 (Homo sapiens, UniProt P24941); details: 0.1 µM; binder
FLT3(N841I) = FLT3(N841I) (Homo sapiens, UniProt P36888, N841I); details: 0.1 µM; binder
CSNK1A1L = CSNK1A1L (Homo sapiens, UniProt Q8N752); details: 0.1 µM; binder
ASK1 = ASK1 (Homo sapiens, UniProt Q99683); details: 0.1 µM; binder
AAK1 = AAK1 (Homo sapiens, UniProt Q2M2I8); details: 0.1 µM; binder
ABL1(F317L) = ABL1(F317L) (Homo sapiens, UniProt P00519, F317L); details: 0.1 µM, binder
MRCKA = MRCKA (Homo sapiens, UniProt Q5VT25); details: 0.1 µM; binder
ERN1 = ERN1 (Homo sapiens, UniProt O75460); details: 0.1 µM; binder
DDR2 = DDR2 (Homo sapiens, UniProt Q16832); details: 0.1 µM; binder
GRK7 = GRK7 (Homo sapiens, UniProt Q8WTQ7); details: 0.1 µM; binder
HASPIN = HASPIN (Homo sapiens, UniProt Q8TF76); details: 0.1 µM; binder
MTOR = MTOR (Homo sapiens, UniProt P42345); details: 0.1 µM; binder
ABL1 = ABL1 (Homo sapiens, UniProt P00519); details: 0.1 µM, binder
IKK-beta = IKK-beta (Homo sapiens, UniProt O14920); details: 0.1 µM; binder
ERK3 = ERK3 (Homo sapiens, UniProt Q16659); details: 0.1 µM; binder
BRSK1 = BRSK1 (Homo sapiens, UniProt Q8TDC3); details: 0.1 µM; binder
PRKG2 = PRKG2 (Homo sapiens, UniProt Q13237); details: 0.1 µM; binder
STK35 = STK35 (Homo sapiens, UniProt Q8TDR2); details: 0.1 µM; binder
p38-beta = p38-beta (Homo sapiens, UniProt Q15759); details: 0.1 µM; binder

Chain of MYLK2 (Q9H1R3 whole entry): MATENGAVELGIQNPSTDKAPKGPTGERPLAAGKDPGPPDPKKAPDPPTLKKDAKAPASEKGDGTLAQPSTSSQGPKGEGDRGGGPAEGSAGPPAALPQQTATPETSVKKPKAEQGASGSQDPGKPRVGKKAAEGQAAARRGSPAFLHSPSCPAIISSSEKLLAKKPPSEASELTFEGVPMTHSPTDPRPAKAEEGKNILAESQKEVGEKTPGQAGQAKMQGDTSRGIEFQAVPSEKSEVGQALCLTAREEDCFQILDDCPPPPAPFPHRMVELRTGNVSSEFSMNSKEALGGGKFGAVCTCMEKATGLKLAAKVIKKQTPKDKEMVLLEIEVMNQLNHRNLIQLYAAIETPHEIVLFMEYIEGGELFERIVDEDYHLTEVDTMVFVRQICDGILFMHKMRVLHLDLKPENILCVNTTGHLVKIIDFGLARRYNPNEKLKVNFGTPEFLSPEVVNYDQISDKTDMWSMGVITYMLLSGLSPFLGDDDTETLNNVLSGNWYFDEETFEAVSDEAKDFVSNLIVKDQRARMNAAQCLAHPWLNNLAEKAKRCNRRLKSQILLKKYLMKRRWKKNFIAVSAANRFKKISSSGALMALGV
Chain of TAOK1 (Q7L7X3 whole entry): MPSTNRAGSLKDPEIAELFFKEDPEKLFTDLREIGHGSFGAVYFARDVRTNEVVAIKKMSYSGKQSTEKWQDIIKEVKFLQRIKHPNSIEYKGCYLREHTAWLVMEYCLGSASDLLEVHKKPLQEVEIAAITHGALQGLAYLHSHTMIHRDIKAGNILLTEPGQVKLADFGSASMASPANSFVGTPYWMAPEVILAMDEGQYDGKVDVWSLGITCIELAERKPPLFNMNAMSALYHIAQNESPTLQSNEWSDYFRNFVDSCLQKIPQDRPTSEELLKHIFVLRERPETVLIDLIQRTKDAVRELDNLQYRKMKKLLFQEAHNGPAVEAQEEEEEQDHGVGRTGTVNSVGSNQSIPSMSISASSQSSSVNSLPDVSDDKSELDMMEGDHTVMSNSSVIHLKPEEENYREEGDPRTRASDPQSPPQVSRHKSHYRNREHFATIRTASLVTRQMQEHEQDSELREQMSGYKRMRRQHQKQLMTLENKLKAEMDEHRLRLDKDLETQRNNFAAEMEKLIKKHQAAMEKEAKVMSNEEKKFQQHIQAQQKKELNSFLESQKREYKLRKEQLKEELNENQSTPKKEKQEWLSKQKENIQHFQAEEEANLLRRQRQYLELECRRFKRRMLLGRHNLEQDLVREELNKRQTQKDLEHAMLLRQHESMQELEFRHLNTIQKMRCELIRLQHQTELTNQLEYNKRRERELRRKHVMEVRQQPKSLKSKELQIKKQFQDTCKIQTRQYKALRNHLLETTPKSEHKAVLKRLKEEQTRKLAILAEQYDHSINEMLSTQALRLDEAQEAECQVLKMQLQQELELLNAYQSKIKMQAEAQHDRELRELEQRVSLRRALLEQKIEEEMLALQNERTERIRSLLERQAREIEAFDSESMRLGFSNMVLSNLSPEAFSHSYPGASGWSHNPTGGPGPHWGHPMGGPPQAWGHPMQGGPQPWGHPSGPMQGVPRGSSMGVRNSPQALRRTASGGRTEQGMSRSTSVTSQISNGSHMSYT
Chain of HASPIN (Q8TF76 whole entry): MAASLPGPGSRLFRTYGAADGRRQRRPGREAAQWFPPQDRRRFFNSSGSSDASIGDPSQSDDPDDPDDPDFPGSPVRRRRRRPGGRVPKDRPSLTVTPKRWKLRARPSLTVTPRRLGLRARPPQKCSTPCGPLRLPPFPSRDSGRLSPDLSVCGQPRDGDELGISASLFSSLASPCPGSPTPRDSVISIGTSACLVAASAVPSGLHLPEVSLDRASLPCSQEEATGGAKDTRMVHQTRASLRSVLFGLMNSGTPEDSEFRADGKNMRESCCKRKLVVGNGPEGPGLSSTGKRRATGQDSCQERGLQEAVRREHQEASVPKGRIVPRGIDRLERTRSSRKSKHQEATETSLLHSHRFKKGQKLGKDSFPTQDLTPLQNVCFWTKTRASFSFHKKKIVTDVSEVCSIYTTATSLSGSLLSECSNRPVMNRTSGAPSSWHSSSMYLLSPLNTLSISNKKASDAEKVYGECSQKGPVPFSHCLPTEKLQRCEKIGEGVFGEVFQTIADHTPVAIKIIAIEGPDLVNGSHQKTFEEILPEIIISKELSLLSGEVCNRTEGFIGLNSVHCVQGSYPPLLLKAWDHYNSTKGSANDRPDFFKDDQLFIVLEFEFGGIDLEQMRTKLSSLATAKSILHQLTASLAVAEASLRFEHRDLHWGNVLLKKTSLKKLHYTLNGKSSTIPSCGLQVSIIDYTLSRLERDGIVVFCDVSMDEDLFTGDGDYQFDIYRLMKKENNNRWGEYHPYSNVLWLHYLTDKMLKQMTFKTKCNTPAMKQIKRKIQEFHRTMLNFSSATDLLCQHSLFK
Chain of ERN1 (O75460 whole entry): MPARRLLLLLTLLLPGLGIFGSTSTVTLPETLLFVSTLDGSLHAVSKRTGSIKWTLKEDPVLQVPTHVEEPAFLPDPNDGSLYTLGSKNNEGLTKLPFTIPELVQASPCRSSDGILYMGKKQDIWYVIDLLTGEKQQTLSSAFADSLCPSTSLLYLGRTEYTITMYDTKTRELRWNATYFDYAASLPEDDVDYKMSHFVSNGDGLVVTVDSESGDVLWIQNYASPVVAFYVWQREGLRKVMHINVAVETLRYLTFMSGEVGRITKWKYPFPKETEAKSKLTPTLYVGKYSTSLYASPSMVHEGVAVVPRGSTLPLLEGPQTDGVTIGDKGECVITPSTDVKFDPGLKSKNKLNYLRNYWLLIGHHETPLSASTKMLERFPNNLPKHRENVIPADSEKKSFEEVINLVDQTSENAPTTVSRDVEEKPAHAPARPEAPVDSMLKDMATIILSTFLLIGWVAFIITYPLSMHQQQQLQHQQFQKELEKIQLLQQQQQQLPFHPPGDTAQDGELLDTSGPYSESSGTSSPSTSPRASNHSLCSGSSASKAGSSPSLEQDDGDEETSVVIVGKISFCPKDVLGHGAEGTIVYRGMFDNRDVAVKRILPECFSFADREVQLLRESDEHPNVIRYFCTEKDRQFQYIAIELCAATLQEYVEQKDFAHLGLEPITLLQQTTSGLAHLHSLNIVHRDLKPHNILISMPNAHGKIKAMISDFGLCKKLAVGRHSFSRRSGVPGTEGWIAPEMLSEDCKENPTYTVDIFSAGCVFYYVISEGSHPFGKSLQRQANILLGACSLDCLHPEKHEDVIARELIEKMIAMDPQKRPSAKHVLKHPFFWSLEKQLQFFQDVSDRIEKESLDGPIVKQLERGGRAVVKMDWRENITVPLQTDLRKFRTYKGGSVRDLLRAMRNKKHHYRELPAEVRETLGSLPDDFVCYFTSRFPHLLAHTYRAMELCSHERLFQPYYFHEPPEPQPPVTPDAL
Chain of PRKG2 (Q13237 whole entry): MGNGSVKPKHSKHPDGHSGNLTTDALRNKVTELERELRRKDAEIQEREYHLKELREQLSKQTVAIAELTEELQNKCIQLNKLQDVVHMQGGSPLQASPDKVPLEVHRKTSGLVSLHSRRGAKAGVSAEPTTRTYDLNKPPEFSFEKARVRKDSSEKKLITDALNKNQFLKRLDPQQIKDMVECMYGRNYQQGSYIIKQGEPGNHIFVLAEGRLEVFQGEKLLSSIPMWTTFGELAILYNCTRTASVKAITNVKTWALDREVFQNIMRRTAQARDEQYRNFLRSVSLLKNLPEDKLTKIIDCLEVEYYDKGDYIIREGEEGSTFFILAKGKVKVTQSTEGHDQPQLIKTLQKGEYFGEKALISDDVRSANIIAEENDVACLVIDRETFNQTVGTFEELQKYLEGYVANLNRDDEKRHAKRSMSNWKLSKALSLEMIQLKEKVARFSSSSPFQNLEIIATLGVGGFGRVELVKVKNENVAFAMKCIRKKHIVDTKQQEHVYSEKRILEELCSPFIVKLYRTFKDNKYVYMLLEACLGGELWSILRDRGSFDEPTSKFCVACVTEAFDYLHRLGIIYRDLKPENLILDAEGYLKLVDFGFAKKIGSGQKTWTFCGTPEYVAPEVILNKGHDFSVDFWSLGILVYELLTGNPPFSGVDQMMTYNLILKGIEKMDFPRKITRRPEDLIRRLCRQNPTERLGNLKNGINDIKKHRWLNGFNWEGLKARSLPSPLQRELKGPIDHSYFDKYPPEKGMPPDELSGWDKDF
Chain of LZK (O43283 whole entry): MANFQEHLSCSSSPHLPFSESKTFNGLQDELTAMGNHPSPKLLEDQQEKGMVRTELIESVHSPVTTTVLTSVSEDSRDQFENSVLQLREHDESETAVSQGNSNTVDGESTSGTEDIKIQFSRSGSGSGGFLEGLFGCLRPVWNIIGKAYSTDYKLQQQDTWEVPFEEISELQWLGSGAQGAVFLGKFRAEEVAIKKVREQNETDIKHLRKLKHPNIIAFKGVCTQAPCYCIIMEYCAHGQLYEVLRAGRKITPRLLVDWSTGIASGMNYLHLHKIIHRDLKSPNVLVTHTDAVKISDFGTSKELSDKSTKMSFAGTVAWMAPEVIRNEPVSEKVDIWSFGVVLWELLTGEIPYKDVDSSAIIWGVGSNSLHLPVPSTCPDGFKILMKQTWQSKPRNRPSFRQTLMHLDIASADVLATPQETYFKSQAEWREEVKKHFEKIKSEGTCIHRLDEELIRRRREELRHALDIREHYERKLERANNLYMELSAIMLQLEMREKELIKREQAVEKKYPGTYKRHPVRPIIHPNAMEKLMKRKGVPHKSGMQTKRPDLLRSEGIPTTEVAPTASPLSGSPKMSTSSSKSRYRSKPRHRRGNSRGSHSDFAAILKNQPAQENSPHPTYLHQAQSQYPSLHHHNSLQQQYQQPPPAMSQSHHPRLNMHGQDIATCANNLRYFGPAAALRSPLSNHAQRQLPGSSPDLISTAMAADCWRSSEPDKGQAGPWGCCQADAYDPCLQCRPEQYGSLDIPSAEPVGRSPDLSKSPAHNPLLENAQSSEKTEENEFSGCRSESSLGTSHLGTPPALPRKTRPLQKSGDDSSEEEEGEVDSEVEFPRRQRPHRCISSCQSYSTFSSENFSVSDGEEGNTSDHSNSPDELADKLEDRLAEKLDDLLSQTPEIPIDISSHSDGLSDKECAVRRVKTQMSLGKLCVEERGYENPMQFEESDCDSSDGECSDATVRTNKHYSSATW

## CNc1ncc2cc(-c3ccc(-c4cccc(C)n4)cc3Cl)c(=O)n(C[C@H]3OC[C@H](N)CO3)c2n1 [compound 6, G-5555]
FGFR1
  Percent Control: 100%
ABL1(M351T)
  Percent Control: 100%
TAOK1
  Percent Control: 100%
CAMKK2
  Percent Control: 100%
TNK2
  Percent Control: 92%
BMPR1A
  Percent Control: 90%
LZK
  Percent Control: 100%
TSSK3
  Percent Control: 100%
EPHB1
  Percent Control: 100%
MYLK2
  Percent Control: 93%
PIK3CA(C420R)
  Percent Control: 80%
BUB1
  Percent Control: 100%
CDK2
  Percent Control: 96%
FLT3(N841I)
  Percent Control: 100%
CSNK1A1L
  Percent Control: 100%
ASK1
  Percent Control: 99%
AAK1
  Percent Control: 100%
ABL1(F317L); nonphosphorylated
  Percent Control: 100%
ABL1(F317L); phosphorylated
  Percent Control: 95%
MRCKA
  Percent Control: 100%
ERN1
  Percent Control: 92%
DDR2
  Percent Control: 88%
GRK7
  Percent Control: 89%
HASPIN
  Percent Control: 87%
MTOR
  Percent Control: 83%
ABL1; nonphosphorylated
  Percent Control: 94%
ABL1; phosphorylated
  Percent Control: 95%
IKK-beta
  Percent Control: 93%
ERK3
  Percent Control: 100%
BRSK1
  Percent Control: 100%
PRKG2
  Percent Control: 86%
STK35
  Percent Control: 100%
p38-beta
  Percent Control: 97%
